Data published in publication PMC2668075 (PLoS ONE, 2009).
Peptide text beside a SMILES is read from it. * marks the point of attachment. AMC = Cc1cc(=O)oc2cc(N*)ccc12

Target: T1, HcDppIVA (Histoplasma ohiense, UniProt A0ACF1AGW9)
T1 construct: gene DPP4
Settings: pH and temperature series (optimum pH 8, 42 °C); 1 h

Cc1cc(=O)oc2cc(NC(=O)[C@@H]3CCCN3C(=O)CN)ccc12 [Gly-pro-AMC] (H-Gly-Pro-{AMC})
fluorescent AMC release assay: We measured DppIV activity of the purified preparation towards Gly-pro-AMC
